Key:
[1] = target: BRD4 (His-Brd4(44-477)) (Homo sapiens (Human), UniProt O60885); test: TR-FRET in-vitro binding assay for BRD4; conditions: acetyl-histone H4 peptide
Description: (§1) TR-FRET In-Vitro Binding Assays for BRD2, BRD3, and BRD4:
(§2) All assays were performed in 384 well microtiter plates. Each assay plate contained 8-point serial dilutions for 40 test compounds, plus 16 high- and 16 low controls. Liquid handling and incubation steps were done on an Innovadyne Nanodrop Express equipped with a robotic arm (Thermo CatX, Perkin Elmer/Caliper Twister II) and an incubator (Liconic STX40, Thermo Cytomat 2C450). The assay plates were prepared by addition of 50 nl per well of compound solution in 90% DMSO HummingBird nanodispenser (Zinsser Analytic). The assay was started by stepwise addition of 4.5 μl per well of bromo domain protein (50 mM HEPES, pH 7.5, 0.005% Tween20, 0.1% BSA, 50 mM NaCl, 45 nM His-Brd2(60-472) or 45 nM His-Brd3(20-477) or 45 nM His-Brd4(44-477) all proteins produced in-house) and 4.5 μl per well of peptide solution (50 mM HEPES, pH 7.5, 0.005% Tween20, 0.1% BSA, 50 mM NaCl, 60 nM acetyl-histone H4 (AcK 5, 8, 12, 16) (Biosyntan GmbH)). Reactions were incubated at 30° C. for 35 minutes. […] After 35 minutes incubation at 30° C., plates were measured in a Perkin Elmer EnVision multilabel reader. Concentrations causing 50% inhibition (IC50 values) were determined from percent inhibition values at different compound concentrations by non-linear regression analysis.
(§3) Preparation of Compound Dilutions
(§4) Test compounds were dissolved in DMSO (10 mM) and transferred into 1.4 mL flat bottom or V-shaped Matrix tubes carrying a unique 2D matrix. The stock solutions were stored at […] if not used immediately. For the test procedure the vials were defrosted and identified by a scanner whereby a working sheet was generated that guided the subsequent working steps. Compound dilutions were made in 96 well plates. This format enabled the assay of maximally 40 individual test compounds at 8 concentrations (single points) including 4 reference compounds, if desired (known BET inhibitors from the prior art, for this and other assays of the type disclosed herein). The dilution protocol included the production of “pre-dilution plates”, “master plates” and “assay plates”.
(§5) Pre-dilution plates: 96 polypropylene well plates were used as pre-dilution plates. A total of 4 pre-dilution plates were prepared including 10 test compounds each on the plate positions A1-A10, one standard compound at A11 and one DMSO control at A12. All dilution steps were done on a HamiltonSTAR robot.
(§6) Master plates: 30 μL of individual compound dilutions including standard compound and controls of the 4 “pre-dilution plates” were transferred into a 384 “master plate” including the following concentrations 10000, 3003, 1000, 300, 100, 30, 10 and 3 μM, respectively in 90% of DMSO.
(§7) Assay plates: Identical “assay plates” were then prepared by pipetting 50 nL each of compound dilutions of the “master plates” into 384-well “assay plates” by means of a HummingBird 384-channel dispenser. These plates were used directly for the assay which was performed in a total volume of 13.55 μL. This led to a final compound concentration of 37, 11, 3.7, 1.1, 0.37, 0.11, 0.037 and 0.011 μM and a final DMSO concentration of 0.37% in the assay.

[2] = target: BRD2 (His-Brd2(60-472)) (Homo sapiens (Human), UniProt P25440); test: TR-FRET in-vitro binding assay for BRD2; conditions: acetyl-histone H4 peptide
Chain of BRD2 (His-Brd2(60-472)) (P25440 60-472): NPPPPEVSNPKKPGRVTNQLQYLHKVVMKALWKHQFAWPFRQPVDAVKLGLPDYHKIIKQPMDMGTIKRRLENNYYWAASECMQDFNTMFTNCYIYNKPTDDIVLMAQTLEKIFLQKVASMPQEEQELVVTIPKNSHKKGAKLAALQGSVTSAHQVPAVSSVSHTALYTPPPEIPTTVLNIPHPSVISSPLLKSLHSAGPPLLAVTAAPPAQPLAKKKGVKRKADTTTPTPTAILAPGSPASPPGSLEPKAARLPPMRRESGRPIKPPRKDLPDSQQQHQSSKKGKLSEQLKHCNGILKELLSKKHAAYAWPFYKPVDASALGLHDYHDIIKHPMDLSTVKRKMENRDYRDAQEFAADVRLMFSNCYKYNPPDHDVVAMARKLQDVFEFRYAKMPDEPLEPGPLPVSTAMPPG
Description: as §1, §2, §3, §4, §5, §6, §7

[3] = target: BRD3 (His-Brd3(20-477)) (Homo sapiens (Human), UniProt Q15059); test: TR-FRET in-vitro binding assay for BRD3; conditions: acetyl-histone H4 peptide
Chain of BRD3 (His-Brd3(20-477)) (Q15059 20-477): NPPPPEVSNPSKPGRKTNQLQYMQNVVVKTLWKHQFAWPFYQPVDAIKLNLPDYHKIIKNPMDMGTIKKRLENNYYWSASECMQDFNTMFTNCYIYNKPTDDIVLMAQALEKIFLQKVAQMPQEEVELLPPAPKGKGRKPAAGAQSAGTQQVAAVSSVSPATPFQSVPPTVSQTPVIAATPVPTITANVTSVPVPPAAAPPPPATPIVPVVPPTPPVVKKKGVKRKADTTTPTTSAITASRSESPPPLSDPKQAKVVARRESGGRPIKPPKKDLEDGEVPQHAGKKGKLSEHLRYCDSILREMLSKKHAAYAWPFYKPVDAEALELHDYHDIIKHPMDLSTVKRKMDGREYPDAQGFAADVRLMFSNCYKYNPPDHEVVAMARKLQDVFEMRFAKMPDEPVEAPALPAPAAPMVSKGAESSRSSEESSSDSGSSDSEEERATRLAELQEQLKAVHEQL
Description: as §1
All assays were performed in 384 well microtiter plates. Each assay plate contained 8-point serial dilutions for 40 test compounds, plus 16 high- and 16 low controls. Liquid handling and incubation steps were done on an Innovadyne Nanodrop Express equipped with a robotic arm (Thermo CatX, Perkin Elmer/Caliper Twister II) and an incubator (Liconic STX40, Thermo Cytomat 2C450). The assay plates were prepared by addition of 50 nl per well of compound solution in 90% DMSO HummingBird nanodispenser (Zinsser Analytic). […] Reactions were incubated at 30° C. for 35 minutes. […] After 35 minutes incubation at 30° C., plates were measured in a Perkin Elmer EnVision multilabel reader.
as §3, §4, §5
(§8) These plates were used directly for the assay which was performed in a total volume of 13.55 μL.

[4] = target: CREBBP bromodomain (His-CREBBP(1081-1197)) (Homo sapiens (Human), UniProt Q92793); test: AlphaScreen in-vitro binding assay for CREBBP; conditions: AlphaScreen, acetyl-histone H4 peptide; read-out: CREBBP IC50
Chain of CREBBP bromodomain (His-CREBBP(1081-1197)) (Q92793 1081-1197): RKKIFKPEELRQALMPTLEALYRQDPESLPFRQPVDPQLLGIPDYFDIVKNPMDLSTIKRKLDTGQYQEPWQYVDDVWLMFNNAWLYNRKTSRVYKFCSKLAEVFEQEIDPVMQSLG
Description: AlphaScreen In-Vitro Binding Assay for CREBBP
In order to assess bromodomain selectivity, we set up a binding assay using the bromodomain encoded by the CREBBP gene. […] Reactions were incubated at 30° C. for 35 minutes. Subsequently 4.5 μl per well detection mix (50 mM HEPES, pH 7.5, 0.005% Tween20, 0.02% BSA, 150 mM NaCl, 45 μg/ml Ni-chelate acceptor beads, 45 μg/ml streptavidin-donor beads) (Perkin Elmer)) were added. After 60 minutes incubation at room temperature, plates were measured in a Perkin Elmer EnVision multilabel reader. IC50 values were determined from percent inhibition values at different compound concentrations by non-linear regression analysis.
as §3, §4, §5, §8

[5] = test system: MV-4-11 cells; test: Cell growth inhibition assay (CellTiter-Glo), MV-4-11; type: cell-based, human; conditions: MV-4-11, 4 days; for GI50: Homo sapiens, MV4-11, 96 h, half-maximal growth inhibition; for MV-4-11 TGI: total growth inhibition
Description: (§9) Cell Growth Inhibition Assay
(§10) The human leukemia cell lines MV-4-11, THP-1 and K-562 were employed to characterize the effect of BET inhibitors on cellular proliferation and viability. Cells were obtained from the American Type Culture Collection (ATCC) and cultured at 37° C. in a humidified 5% CO2 incubator in the following media: MV-4-11: DMEM high glucose (Animed #1-26F01-I), 10% FCS (Animed #2-01F26-I), 4 mM L-Glutamine (Animed #5-10K50), 1 mM Sodium Pyruvate (Animed #G03625P), lx Penicillin-Streptomycin (Animed #F12478P); K-562: Iscove's MEM (Animed #1-28F16-I), 10% FCS (Animed #2-01F26-I), 4 mM L-Glutamine (Animed #5-10K50), 1× Penicillin-Streptomycin (Animed #F12478P); THP-1: RPMI-1640 (Animed #1-41F01-I), 10% FCS (Animed #2-01F26-I), 2 mM L-Glutamine (Animed #5-10K50), 10 mM HEPES (Animed #5-31F100), 1 mM Sodium Pyruvate (Animed #G03625P), 1× Penicillin-Streptomycin (Animed #F12478P). The AML lines MV-4-11 and THP-1 are very sensitive to BET inhibitors and show massive cell death upon BET inhibition (Zuber et al., Nature, 478 (2011), 524-8). Compound-mediated suppression of cell proliferation/viability was assessed by quantification of cellular ATP levels using the CellTiter-Glo (CTG) reagent (Promega). Briefly, cells were seeded in 20 μl fresh medium into 384-well plates, followed by addition of 5 μl medium containing compound dilutions at 5-fold their final intended concentration. Dose-response effects were assessed by 3-fold serial dilutions of the test compound, starting at 10 μM. Following incubation of the cells for 4 days at 37° C. and 5% CO2, the effect of inhibitors on cell viability was quantified following addition of 20 μl CTG and luminescence quantification (integration time: 100 ms) as per vendor manual, using a correspondingly equipped Tecan M200 multi-mode platereader (TECAN, Switzerland). For data analysis, the assay background value determined in wells containing medium, but no cells, was subtracted from all data points. To enable differentiation of cytotoxic from cytostatic compounds, the number of viable cells is assessed relative to that observed at the time of compound addition using a separate cell plate (day 0). The effect of a particular test compound concentration on cell proliferation/viability is expressed as percentage of the background- and day 0-corrected luminescence reading obtained for cells treated with vehicle only (DMSO, 0.1% final concentration), which is set as 100%, whereas that luminescence reading for wells containing medium is set as −100%. Compound concentrations leading to half-maximal (IC50) and total growth inhibition (TGI) were determined using standard four parameter curve fitting.

[6] = test system: THP-1 cells; test: Cell growth inhibition assay (CellTiter-Glo), THP-1; type: cell-based, human; conditions: THP-1, 4 days; for GI50: Homo sapiens, 96 h, half-maximal growth inhibition; for THP-1 TGI: total growth inhibition
Description: as §9, §10

[7] = test system: K-562 cells; test: Cell growth inhibition assay (CellTiter-Glo), K-562; type: cell-based, human; conditions: K-562, 4 days; for GI50: Homo sapiens, K562, 96 h, half-maximal growth inhibition; for K-562 TGI: total growth inhibition
Description: as §9, §10

Row | Compound | IC50 [1] | IC50 [2] | IC50 [3] | IC50 [4] | GI50 [5] | GI50 [6] | GI50 [7] | MV-4-11 TGI [5] | THP-1 TGI [6] | K-562 TGI [7]
1 | Cc1cc(N2C(=O)c3c(C4CC4)nn(C[C@H](O)C(F)(F)F)c3[C@H]2c2ccc(Cl)cc2)cn2c(C)nnc12 [Example 20, (R)-6-(4-chlorophenyl)-3-cyclopropyl-5-(3,8-dimethyl-[1,2,4]triazolo[4,3-a]pyridin-6-yl)-1-((S)-3,3,3-trifluoro-2-hydroxypropyl)-5,6-dihydropyrrolo[3,4-c]pyrazol-4(1H)-one] | 15 nM | 13 nM | 12 nM | 7900 nM | 6.47 nM | 20.9 nM | 96 nM | 16.1 nM | 44.7 nM | >10000 nM
2 | COCCn1nc(C2CC2)c2c1[C@@H](c1ccc(Cl)cc1)N(c1cc(C)c3nnc(C)n3c1)C2=O [Example 15, (R)-6-(4-chlorophenyl)-3-cyclopropyl-5-(3,8-dimethyl-[1,2,4]triazolo[4,3-a]pyridin-6-yl)-1-(2-methoxyethyl)-5,6-dihydropyrrolo[3,4-c]pyrazol-4(1H)-one] | 18 nM | 20 nM | 16 nM | 6100 nM | 2.41 nM | 6.42 nM | 26.5 nM | 5.79 nM | 13.9 nM | >10000 nM
3 | COc1cc(N2C(=O)c3c(C4CC4)nn(C)c3[C@H]2c2ccc(Cl)cc2)cn2c(C)nnc12 [Example 14, (R)-6-(4-chlorophenyl)-3-cyclopropyl-5-(8-methoxy-3-methyl-[1,2,4]triazolo[4,3-a]-pyridin-6-yl)-1-methyl-5,6-dihydropyrrolo[3,4-c]pyrazol-4(1H)-one] | 30 nM | 57 nM | 55 nM | 27500 nM | 20.1 nM | 51.4 nM | 152 nM | 39.55 nM | 118.5 nM | >10000 nM
4 | Cc1cc(N2C(=O)c3c(C4CC4)nn(-c4ccnn4C)c3C2c2ccc(Cl)cc2)nn2c(C)nnc12 (stereo not shown) [Example 25, 6-(4-chlorophenyl)-3-cyclopropyl-5-(3,8-dimethyl-[1,2,4]triazolo[4,3-b]pyridazin-6-yl)-1-(1-methyl-1H-pyrazol-5-yl)-5,6-dihydropyrrolo[3,4-c]pyrazol-4(1H)-one] | 25 nM | 32 nM | 24 nM | > 37000 nM | 6.65 nM | 20.1 nM | 91.6 nM | 15.9 nM | 44.4 nM | >10000 nM

Now from value to compound, other results behind:

Row | IC50 [1] | IC50 [2] | IC50 [3] | IC50 [4] | GI50 [5] | GI50 [6] | GI50 [7] | Compound | MV-4-11 TGI [5] | THP-1 TGI [6] | K-562 TGI [7]
5 | 21 nM | 41 nM | 34 nM | 3700 nM | 1.56 nM | 2.83 nM | 9.66 nM | Cc1nnc2c(N)cc(N3C(=O)c4c(C5CC5)nn(C)c4C3c3ccc(Cl)cc3)cn12 (stereo not shown) [Example 28, 5-(8-amino-3-methyl-[1,2,4]triazolo[4,3-a]pyridin-6-yl)-6-(4-chlorophenyl)-3-cyclopropyl-1-methyl-5,6-dihydropyrrolo[3,4-c]pyrazol-4(1H)-one] | 3.515 nM | 9.04 nM | >10000 nM
6 | < 11 nM | < 11 nM | < 11 nM | 19200 nM | 0.643 nM | 1.88 nM | 10.4 nM | Cc1cc(N2C(=O)c3c(C4CC4)nn(C)c3[C@H]2c2ccc(Cl)cc2)nn2c(C)nnc12 [Example 24, (R)-6-(4-chlorophenyl)-3-cyclopropyl-5-(3,8-dimethyl-[1,2,4]triazolo[4,3-b]pyridazin-6-yl)-1-methyl-5,6-dihydropyrrolo[3,4-c]pyrazol-4(1H)-one] | 1.57 nM | 4.91 nM | >10000 nM
7 | < 11 nM | 11 nM | < 11 nM | 9800 nM | 4.28 nM | 9.68 nM | 63.1 nM | Cc1cc(N2C(=O)c3c(C4CC4)nn(C)c3[C@H]2c2ccc(Cl)cc2)cn2c(CF)nnc12 [Example 17, (R)-6-(4-chlorophenyl)-3-cyclopropyl-5-(3-(fluoromethyl)-8-methyl-[1,2,4]triazolo-[4,3-a]pyridin-6-yl)-1-methyl-5,6-dihydropyrrolo[3,4-c]pyrazol-4(1H)-one] | 9.765 nM | 24.7 nM | >10000 nM
